Test results: ChEMBL document CHEMBL3817730, “Design, synthesis and antimetastatic evaluation of 1-benzothiazolylphenylbenzotriazoles for photodynamic therapy in oral cancer cells” (Medchemcomm, 2016)
Activity calls are given as the source filed them. The calls are words filed in the database; no cut-off is given here.

Tests used:
[1] = Cytotoxicity against human Ca9-22 cells assessed as cell survival at 5 uM preincubated for 4 hrs followed by 1 Jcm'-2 UVA irradiation measured after 24 hrs by MTT assay relative to control; type: cell-based; details: read-out: Survival
[2] = tested on: Ca9-22; experiment: Anti-metastatic activity against human Ca9-22 cells assessed as increase in syndecan-1 mRNA expression at 2 uM preincubated for 2 hrs followed by 0.5 Jcm'-2 UVA irradiation measured after 8 hrs by qRT-PCR method; type: functional, cell-based
[3] = target: T1, Epidermal growth factor receptor (Homo sapiens) (UniProt P04626+P00533+Q15303+P21860); experiment: Inhibition of EGFR/ERK signalling in human Ca9-22 cells assessed as reduction in MMP9 mRNA expression at 2 uM preincubated for 2 hrs followed by 0.5 Jcm'-2 UVA irradiation measured after 8 hrs by qRT-PCR method; type: cell-based
[4] = target: Epidermal growth factor receptor (Homo sapiens) (UniProt P00533); experiment: Inhibition of phosphorylated EGFR level in human Ca9-22 cells at 2 uM preincubated for 2 hrs followed by 0.5 Jcm'-2 UVA irradiation by Western blot analysis; type: cell-based
[5] = tested on: Ca9-22; experiment: Anti-metastatic activity against human Ca9-22 cells assessed as reduction in heparanase mRNA expression at 2 uM preincubated for 2 hrs followed by 0.5 Jcm'-2 UVA irradiation measured after 8 hrs by qRT-PCR method; type: functional, cell-based
[6] = tested on: Ca9-22; experiment: Anti-metastatic activity against human Ca9-22 cells assessed as increase in TIMP3 mRNA expression at 2 uM preincubated for 2 hrs followed by 0.5 Jcm'-2 UVA irradiation measured after 8 hrs by qRT-PCR method; type: functional, cell-based
[7] = tested on: Ca9-22; experiment: Anti-metastatic activity against human Ca9-22 cells assessed as inhibition of cell migration at 2 uM preincubated for 2 hrs followed by 0.5 Jcm'-2 UVA irradiation measured after 16 hrs by wound healing assay relative to control; type: functional; details: Ca9-22, light or radiation study
[8] = target: T1, Epidermal growth factor receptor (Homo sapiens); experiment: Inhibition of EGFR/ERK signalling in human Ca9-22 cells assessed as reduction in MMP2 expression at 2 uM preincubated for 2 hrs followed by 0.5 Jcm'-2 UVA irradiation by Western blot analysis; type: cell-based
[9] = tested on: Ca9-22; experiment: Increase in TIMP3 expression in human Ca9-22 cells at 2 uM preincubated for 2 hrs followed by 0.5 Jcm'-2 UVA irradiation by Western blot analysis; type: functional, cell-based
[10] = target: T1, Epidermal growth factor receptor (Homo sapiens); experiment: Inhibition of EGFR/ERK signalling in human Ca9-22 cells assessed as reduction in MMP9 expression at 2 uM preincubated for 2 hrs followed by 0.5 Jcm'-2 UVA irradiation by Western blot analysis; type: cell-based
[11] = Cytotoxicity against human Ca9-22 cells assessed as inhibition of cell survival at 2 uM preincubated for 2 hrs followed by 0.5 Jcm'-2 UVA irradiation measured after 24 hrs by MTT assay relative to control; type: cell-based; details: read-out: INH
[12] = tested on: Ca9-22; experiment: Inhibition of phosphorylated ERK level in human Ca9-22 cells at 2 uM preincubated for 2 hrs followed by 0.5 Jcm'-2 UVA irradiation by Western blot analysis; type: cell-based
[13] = tested on: Ca9-22; experiment: Antiinvasive activity against human Ca9-22 cells assessed as cell invasion at 2 uM preincubated for 2 hrs followed by 0.5 Jcm'-2 UVA irradiation measured after 22 hrs by boyden chamber assay relative to control; type: functional
[14] = target: T1, Epidermal growth factor receptor (Homo sapiens); experiment: Inhibition of EGFR/ERK signalling in human Ca9-22 cells assessed as reduction in MMP2 mRNA expression at 2 uM preincubated for 2 hrs followed by 0.5 Jcm'-2 UVA irradiation measured after 8 hrs by qRT-PCR method; type: cell-based

Sequence of Epidermal growth factor receptor (Homo sapiens) (UniProt P00533) (P00533 whole entry): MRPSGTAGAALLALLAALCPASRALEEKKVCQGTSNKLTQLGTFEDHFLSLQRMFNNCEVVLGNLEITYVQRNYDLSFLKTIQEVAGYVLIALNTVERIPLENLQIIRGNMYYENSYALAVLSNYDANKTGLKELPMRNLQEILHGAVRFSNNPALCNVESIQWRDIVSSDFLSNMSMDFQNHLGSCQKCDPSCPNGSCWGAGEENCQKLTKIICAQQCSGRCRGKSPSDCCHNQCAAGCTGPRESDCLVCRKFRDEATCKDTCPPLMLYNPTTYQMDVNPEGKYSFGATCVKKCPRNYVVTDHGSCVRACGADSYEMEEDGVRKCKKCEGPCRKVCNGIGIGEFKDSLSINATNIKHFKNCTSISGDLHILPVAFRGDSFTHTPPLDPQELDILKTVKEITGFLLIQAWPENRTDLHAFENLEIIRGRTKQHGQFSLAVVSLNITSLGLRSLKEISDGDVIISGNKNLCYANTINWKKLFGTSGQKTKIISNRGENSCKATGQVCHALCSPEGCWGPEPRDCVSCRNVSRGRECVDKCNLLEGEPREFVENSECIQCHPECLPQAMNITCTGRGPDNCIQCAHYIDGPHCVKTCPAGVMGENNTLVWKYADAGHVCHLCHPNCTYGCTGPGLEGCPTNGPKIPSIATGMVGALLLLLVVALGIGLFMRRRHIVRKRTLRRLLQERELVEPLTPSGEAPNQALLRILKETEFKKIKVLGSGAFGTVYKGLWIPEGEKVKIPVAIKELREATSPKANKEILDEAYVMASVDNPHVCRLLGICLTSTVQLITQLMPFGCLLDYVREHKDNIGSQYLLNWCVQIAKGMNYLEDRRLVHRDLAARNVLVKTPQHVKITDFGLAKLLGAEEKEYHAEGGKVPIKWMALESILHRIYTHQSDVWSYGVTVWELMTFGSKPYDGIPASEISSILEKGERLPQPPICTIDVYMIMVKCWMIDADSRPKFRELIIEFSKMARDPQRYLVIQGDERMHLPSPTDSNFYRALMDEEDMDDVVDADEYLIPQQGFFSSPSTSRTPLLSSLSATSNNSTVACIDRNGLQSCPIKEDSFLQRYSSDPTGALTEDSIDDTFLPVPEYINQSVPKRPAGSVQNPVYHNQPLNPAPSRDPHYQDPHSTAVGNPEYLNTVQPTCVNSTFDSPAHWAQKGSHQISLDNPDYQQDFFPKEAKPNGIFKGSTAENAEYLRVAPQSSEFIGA

Row | Compound | viability at 24 h, 5 µM [1] [%] | inhibition at 2 µM [7] [%] | Activity [13] [%] | other results
1 | FC(F)(F)c1ccc2nc(-c3ccc(-n4nnc5ccccc54)cc3)sc2c1 | 91.8 | – | – | –
2 | CCc1ccc2nc(-c3ccc(-n4nnc5cc(OC)ccc54)cc3)sc2c1 | 114 | – | – | –
3 | COc1ccc2nc(-c3ccc(-n4nnc5ccccc54)cc3)sc2c1 | 44.1 | 68.7 | 38.9 | Activity [2]: Active; inhibition [3]: Active; inhibition [4]: Active; Activity [5]: Active; Activity [6]: Active; inhibition [8]: Active; Activity [9]: Active; inhibition [10]: Active; cytotoxicity at 24 h, 2 µM [11]: 20%; inhibition [12]: Active; inhibition [14]: Active
4 | COc1ccc2c(c1)nnn2-c1ccc(-c2nc3ccccc3s2)cc1 | 104 | – | – | –
5 | COc1ccc2nc(-c3ccc(-n4nnc5ccccc54)c(C)c3)sc2c1 | 82.1 | – | – | –
6 | COc1ccc2c(c1)nnn2-c1ccc(-c2nc3ccc(OC)cc3s2)cc1 | 81.1 | 51.7 | 108.6 | –
7 | CCc1ccc2nc(-c3ccc(-n4nnc5cc(OC)ccc54)c(C)c3)sc2c1 | 73.1 | 31.1 | 70 | –
8 | Cc1cc(-c2nc3ccccc3s2)ccc1-n1nnc2ccccc21 | 48.6 | 45.8 | 47.6 | inhibition [4]: Active; inhibition [8]: Active; Activity [9]: Active; inhibition [10]: Active; inhibition [12]: Active
9 | Cc1cc(-c2nc3ccc(C(F)(F)F)cc3s2)ccc1-n1nnc2ccccc21 | 89.4 | – | – | –
10 | CCc1ccc2nc(-c3ccc(-n4nnc5ccccc54)cc3)sc2c1 | 109 | – | – | –
11 | COc1ccc2c(c1)nnn2-c1ccc(-c2nc3ccccc3s2)cc1C | 79.6 | 18.5 | 75.9 | –
12 | COc1ccc2c(c1)nnn2-c1ccc(-c2nc3ccc(C(F)(F)F)cc3s2)cc1C | 113 | – | – | –
13 | COc1ccc2c(c1)nnn2-c1ccc(-c2nc3ccc(C(F)(F)F)cc3s2)cc1 | 105 | – | – | –
14 | c1ccc2sc(-c3ccc(-n4nnc5ccccc54)cc3)nc2c1 | 95.5 | – | – | –
15 | CCc1ccc2nc(-c3ccc(-n4nnc5ccccc54)c(C)c3)sc2c1 | 50.2 | 70.1 | 47 | inhibition [4]: Active; inhibition [8]: Active; Activity [9]: Active; inhibition [10]: Active; inhibition [12]: Active
16 | COc1ccc2c(c1)nnn2-c1ccc(-c2nc3ccc(OC)cc3s2)cc1C | 63.3 | – | – | –
